# Measurements as given in PubChem BioAssay (NCI).
#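 Growth conditions: 96-well plates. Treatment: test compound, 48 hours, 5 concentrations. Analysis: linear interpolation between bracketing concentrations; unreached endpoints set to highest concentration. The concentration for full growth arrest is given as TGI.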
# Tests used:
# Test in all cases: growth of human tumour cells (NCI), 48 h
# 786-0 renal = system: 786-0 renal
# ACHN renal = system: ACHN renal
# BT-549 breast = system: BT-549 breast
# CAKI-1 renal = system: CAKI-1 renal
# COLO 205 colon = system: COLO 205 colon
# DU-145 prostate = system: DU-145 prostate
# EKVX NSCLC = system: EKVX NSCLC
# HCC-2998 colon = system: HCC-2998 colon
# HCT-116 colon = system: HCT-116 colon
# HCT-15 colon = system: HCT-15 colon
# M14 melanoma = system: M14 melanoma
# MALME-3M melanoma = system: MALME-3M melanoma
# MCF7 breast = system: MCF7 breast
# MDA-N = system: MDA-N
# NCI-H226 lung = system: NCI-H226 lung
# NCI-H23 lung = system: NCI-H23 lung
# NCI-H460 lung = system: NCI-H460 lung
# NCI/ADR-RES ovarian = system: NCI/ADR-RES ovarian
# OVCAR-4 ovarian = system: OVCAR-4 ovarian
# OVCAR-5 ovarian = system: OVCAR-5 ovarian
# PC-3 prostate = system: PC-3 prostate
# RXF 393 renal = system: RXF 393 renal
# SF-268 CNS = system: SF-268 CNS
# SF-539 CNS = system: SF-539 CNS
# SK-MEL-2 melanoma = system: SK-MEL-2 melanoma
# SK-MEL-5 melanoma = system: SK-MEL-5 melanoma
# SK-OV-3 ovarian = system: SK-OV-3 ovarian
# SN12C renal = system: SN12C renal
# SNB-75 CNS = system: SNB-75 CNS
# T-47D breast = system: T-47D breast
# TK-10 renal = system: TK-10 renal
# UACC-257 melanoma = system: UACC-257 melanoma
# UACC-62 melanoma = system: UACC-62 melanoma
# UO-31 renal = system: UO-31 renal
# A549 NSCLC = system: A549 NSCLC
# CCRF-CEM leukemia = system: CCRF-CEM leukemia
# HOP-62 NSCLC = system: HOP-62 NSCLC
# HOP-92 NSCLC = system: HOP-92 NSCLC
# HT29 colon = system: HT29 colon
# IGROV1 ovarian = system: IGROV1 ovarian
# K-562 leukemia = system: K-562 leukemia
# KM12 colon = system: KM12 colon
# LOX IMVI melanoma = system: LOX IMVI melanoma
# MDA-MB-231 breast = system: MDA-MB-231 breast
# MDA-MB-435 = system: MDA-MB-435
# MOLT-4 leukemia = system: MOLT-4 leukemia
# NCI-H522 lung = system: NCI-H522 lung
# OVCAR-3 ovarian = system: OVCAR-3 ovarian
# OVCAR-8 ovarian = system: OVCAR-8 ovarian
# RPMI-8226 leukemia = system: RPMI-8226 leukemia
# SF-295 CNS = system: SF-295 CNS
# SK-MEL-28 melanoma = system: SK-MEL-28 melanoma
# SNB-19 CNS = system: SNB-19 CNS
# SR leukemia = system: SR leukemia
# SW-620 colon = system: SW-620 colon
# U251 CNS = system: U251 CNS
# A498 renal = system: A498 renal
# HS 578T breast = system: HS 578T breast
# HL-60(TB) leukemia = system: HL-60(TB) leukemia
smiles,measurement,setting,value
NCC(=O)N1CCN(c2nc(N3CCCC3)c3nc(Cl)c(NCc4ccccc4)nc3n2)CC1,TGI,786-0 renal,3.11 µM
same,TGI,ACHN renal,4.34 µM
same,TGI,BT-549 breast,3.74 µM
same,TGI,CAKI-1 renal,6.4 µM
same,TGI,COLO 205 colon,3.19 µM
same,TGI,DU-145 prostate,6.82 µM
same,TGI,EKVX NSCLC,3.81 µM
same,TGI,HCC-2998 colon,3.03 µM
same,TGI,HCT-116 colon,3.23 µM
same,TGI,HCT-15 colon,3.67 µM
same,TGI,M14 melanoma,3.15 µM
same,TGI,MALME-3M melanoma,3.73 µM
same,TGI,MCF7 breast,3.38 µM
same,TGI,MDA-N,3.34 µM
same,TGI,NCI-H226 lung,19 µM
same,TGI,NCI-H23 lung,3.63 µM
same,TGI,NCI-H460 lung,3.59 µM
same,TGI,NCI/ADR-RES ovarian,36.8 µM
same,TGI,OVCAR-4 ovarian,4.79 µM
same,TGI,OVCAR-5 ovarian,9.87 µM
same,TGI,PC-3 prostate,7.33 µM
same,TGI,RXF 393 renal,2.89 µM
same,TGI,SF-268 CNS,4.41 µM
same,TGI,SF-539 CNS,3.58 µM
same,TGI,SK-MEL-2 melanoma,3.42 µM
same,TGI,SK-MEL-5 melanoma,3.17 µM
same,TGI,SK-OV-3 ovarian,3.54 µM
same,TGI,SN12C renal,3.34 µM
same,TGI,SNB-75 CNS,3.16 µM
same,TGI,T-47D breast,3.03 µM
same,TGI,TK-10 renal,3.73 µM
same,TGI,UACC-257 melanoma,3.24 µM
same,TGI,UACC-62 melanoma,3.24 µM
same,TGI,UO-31 renal,3.06 µM
CCc1n[nH]c(=O)n1NC(=O)c1ccccc1C(=O)O,TGI,786-0 renal,> 100 µM
same,TGI,A549 NSCLC,> 100 µM
same,TGI,ACHN renal,> 100 µM
same,TGI,BT-549 breast,> 100 µM
same,TGI,CCRF-CEM leukemia,> 100 µM
same,TGI,COLO 205 colon,> 100 µM
same,TGI,DU-145 prostate,> 100 µM
same,TGI,EKVX NSCLC,> 100 µM
same,TGI,HCC-2998 colon,> 100 µM
same,TGI,HCT-116 colon,> 100 µM
same,TGI,HCT-15 colon,> 100 µM
same,TGI,HOP-62 NSCLC,> 100 µM
same,TGI,HOP-92 NSCLC,> 100 µM
same,TGI,HT29 colon,> 100 µM
same,TGI,IGROV1 ovarian,> 100 µM
same,TGI,K-562 leukemia,> 100 µM
same,TGI,KM12 colon,> 100 µM
same,TGI,LOX IMVI melanoma,> 100 µM
same,TGI,M14 melanoma,> 100 µM
same,TGI,MCF7 breast,> 100 µM
same,TGI,MDA-MB-231 breast,> 100 µM
same,TGI,MDA-MB-435,> 100 µM
same,TGI,MDA-N,> 100 µM
same,TGI,MOLT-4 leukemia,> 100 µM
same,TGI,NCI-H23 lung,> 100 µM
same,TGI,NCI-H522 lung,> 100 µM
same,TGI,NCI/ADR-RES ovarian,> 100 µM
same,TGI,OVCAR-3 ovarian,> 100 µM
same,TGI,OVCAR-4 ovarian,> 100 µM
same,TGI,OVCAR-5 ovarian,> 100 µM
same,TGI,OVCAR-8 ovarian,> 100 µM
same,TGI,PC-3 prostate,> 100 µM
same,TGI,RPMI-8226 leukemia,> 100 µM
same,TGI,RXF 393 renal,> 100 µM
same,TGI,SF-268 CNS,> 100 µM
same,TGI,SF-295 CNS,> 100 µM
same,TGI,SF-539 CNS,> 100 µM
same,TGI,SK-MEL-2 melanoma,> 100 µM
same,TGI,SK-MEL-28 melanoma,> 100 µM
same,TGI,SK-MEL-5 melanoma,> 100 µM
same,TGI,SK-OV-3 ovarian,> 100 µM
same,TGI,SN12C renal,> 100 µM
same,TGI,SNB-19 CNS,> 100 µM
same,TGI,SNB-75 CNS,> 100 µM
same,TGI,SR leukemia,> 100 µM
same,TGI,SW-620 colon,> 100 µM
same,TGI,TK-10 renal,> 100 µM
same,TGI,U251 CNS,> 100 µM
same,TGI,UACC-257 melanoma,> 100 µM
same,TGI,UACC-62 melanoma,> 100 µM
same,TGI,UO-31 renal,> 100 µM
c1ccc(/N=C2\c3ccccc3CN2c2ccccn2)nc1,TGI,786-0 renal,> 100 µM
same,TGI,A498 renal,> 100 µM
same,TGI,A549 NSCLC,> 100 µM
same,TGI,ACHN renal,> 100 µM
same,TGI,BT-549 breast,> 100 µM
same,TGI,CAKI-1 renal,> 100 µM
same,TGI,COLO 205 colon,> 100 µM
same,TGI,DU-145 prostate,> 100 µM
same,TGI,EKVX NSCLC,> 100 µM
same,TGI,HCC-2998 colon,> 100 µM
same,TGI,HCT-116 colon,> 100 µM
same,TGI,HCT-15 colon,> 100 µM
same,TGI,HOP-62 NSCLC,> 100 µM
same,TGI,HOP-92 NSCLC,72.7 µM
same,TGI,HS 578T breast,> 100 µM
same,TGI,HT29 colon,> 100 µM
same,TGI,IGROV1 ovarian,> 100 µM
same,TGI,K-562 leukemia,> 100 µM
same,TGI,KM12 colon,> 100 µM
same,TGI,LOX IMVI melanoma,> 100 µM
same,TGI,M14 melanoma,> 100 µM
same,TGI,MCF7 breast,> 100 µM
same,TGI,MDA-MB-231 breast,> 100 µM
same,TGI,MDA-MB-435,> 100 µM
same,TGI,MDA-N,> 100 µM
same,TGI,MOLT-4 leukemia,> 100 µM
same,TGI,NCI-H226 lung,> 100 µM
same,TGI,NCI-H23 lung,> 100 µM
same,TGI,NCI-H460 lung,> 100 µM
same,TGI,NCI-H522 lung,> 100 µM
same,TGI,OVCAR-3 ovarian,> 100 µM
same,TGI,OVCAR-4 ovarian,> 100 µM
same,TGI,OVCAR-5 ovarian,> 100 µM
same,TGI,OVCAR-8 ovarian,> 100 µM
same,TGI,PC-3 prostate,> 100 µM
same,TGI,RPMI-8226 leukemia,> 100 µM
same,TGI,RXF 393 renal,> 100 µM
same,TGI,SF-268 CNS,> 100 µM
same,TGI,SF-295 CNS,> 100 µM
same,TGI,SF-539 CNS,> 100 µM
same,TGI,SK-MEL-2 melanoma,> 100 µM
same,TGI,SK-MEL-28 melanoma,> 100 µM
same,TGI,SK-MEL-5 melanoma,> 100 µM
same,TGI,SK-OV-3 ovarian,> 100 µM
same,TGI,SN12C renal,> 100 µM
same,TGI,SNB-19 CNS,> 100 µM
same,TGI,SNB-75 CNS,> 100 µM
same,TGI,SW-620 colon,> 100 µM
same,TGI,T-47D breast,77.2 µM
same,TGI,TK-10 renal,> 100 µM
same,TGI,U251 CNS,> 100 µM
same,TGI,UACC-257 melanoma,> 100 µM
same,TGI,UACC-62 melanoma,> 100 µM
same,TGI,UO-31 renal,> 100 µM
O=C(/C=C\Nc1ccccc1O)C(Cl)(Cl)Cl,TGI,786-0 renal,64.7 µM
same,TGI,A498 renal,> 100 µM
same,TGI,A549 NSCLC,> 100 µM
same,TGI,ACHN renal,> 100 µM
same,TGI,BT-549 breast,> 100 µM
same,TGI,CAKI-1 renal,> 100 µM
same,TGI,CCRF-CEM leukemia,> 100 µM
same,TGI,COLO 205 colon,> 100 µM
same,TGI,DU-145 prostate,> 100 µM
same,TGI,EKVX NSCLC,> 100 µM
same,TGI,HCC-2998 colon,52.6 µM
same,TGI,HCT-116 colon,> 100 µM
same,TGI,HCT-15 colon,> 100 µM
same,TGI,HL-60(TB) leukemia,> 100 µM
same,TGI,HOP-62 NSCLC,52.7 µM
same,TGI,HOP-92 NSCLC,> 100 µM
same,TGI,HS 578T breast,> 100 µM
same,TGI,HT29 colon,> 100 µM
same,TGI,IGROV1 ovarian,> 100 µM
same,TGI,K-562 leukemia,> 100 µM
same,TGI,KM12 colon,> 100 µM
same,TGI,LOX IMVI melanoma,> 100 µM
same,TGI,M14 melanoma,> 100 µM
same,TGI,MALME-3M melanoma,> 100 µM
same,TGI,MCF7 breast,64.5 µM
same,TGI,MDA-MB-231 breast,> 100 µM
same,TGI,MDA-MB-435,43.8 µM
same,TGI,MDA-N,59.2 µM
same,TGI,MOLT-4 leukemia,> 100 µM
same,TGI,NCI-H226 lung,> 100 µM
same,TGI,NCI-H23 lung,> 100 µM
same,TGI,NCI-H460 lung,> 100 µM
same,TGI,NCI-H522 lung,65 µM
same,TGI,NCI/ADR-RES ovarian,> 100 µM
same,TGI,OVCAR-3 ovarian,43.1 µM
same,TGI,OVCAR-4 ovarian,> 100 µM
same,TGI,OVCAR-5 ovarian,> 100 µM
same,TGI,OVCAR-8 ovarian,> 100 µM
same,TGI,PC-3 prostate,> 100 µM
same,TGI,RPMI-8226 leukemia,> 100 µM
same,TGI,RXF 393 renal,> 100 µM
same,TGI,SF-268 CNS,> 100 µM
same,TGI,SF-295 CNS,35.2 µM
same,TGI,SF-539 CNS,> 100 µM
same,TGI,SK-MEL-2 melanoma,> 100 µM
same,TGI,SK-MEL-28 melanoma,> 100 µM
same,TGI,SK-MEL-5 melanoma,> 100 µM
same,TGI,SK-OV-3 ovarian,> 100 µM
same,TGI,SN12C renal,> 100 µM
same,TGI,SNB-19 CNS,> 100 µM
same,TGI,SNB-75 CNS,> 100 µM
same,TGI,SW-620 colon,> 100 µM
same,TGI,T-47D breast,96.4 µM
same,TGI,TK-10 renal,> 100 µM
same,TGI,U251 CNS,81.8 µM
same,TGI,UACC-257 melanoma,> 100 µM
same,TGI,UACC-62 melanoma,> 100 µM
same,TGI,UO-31 renal,76.5 µM
